# Source: paper PMC4716540 (British Journal of Cancer, 2015)
# Entries after “also recorded” stand apart in the source; their conditions may differ.
# Test system: patients with confirmed relapsed/refractory MM, CLL, or NHL
# Assay: Phase I safety and tolerability: adverse events, DLT, MTD, RP2D
# Format: in vivo, human
smiles,measurement,setting,value
CCc1c(O)cc(O)c(C(=O)c2ccc(OCCN3CCOCC3)c(OC)c2)c1CC(=O)N(CCOC)CCOC [KW-2478],Abdominal pain (any AE),99 mg m^–2 (n=4),1 (25.0) No. of patients (%)
same,Acne (any AE),99 mg m^–2 (n=4),0 No. of patients (%)
same,Anaemia (any AE),99 mg m^–2 (n=4),0 No. of patients (%)
same,Anorexia (any AE),99 mg m^–2 (n=4),0 No. of patients (%)
same,Back pain (any AE),99 mg m^–2 (n=4),2 (50.0) No. of patients (%)
same,Diarrhoea (any AE),99 mg m^–2 (n=4),2 (50.0) No. of patients (%)
same,Dizziness (any AE),99 mg m^–2 (n=4),0 No. of patients (%)
same,Fatigue (any AE),99 mg m^–2 (n=4),2 (50.0) No. of patients (%)
same,Haemoglobin decreased (any AE),99 mg m^–2 (n=4),0 No. of patients (%)
same,Hair disorder (any AE),99 mg m^–2 (n=4),0 No. of patients (%)
same,Headache (any AE),99 mg m^–2 (n=4),2 (50.0) No. of patients (%)
same,Herpes simplex infection (any AE),99 mg m^–2 (n=4),0 No. of patients (%)
same,Hypertension (any AE),99 mg m^–2 (n=4),1 (25.0) No. of patients (%)
same,LRTI (any AE),99 mg m^–2 (n=4),0 No. of patients (%)
same,Musculoskeletal chest pain (any AE),99 mg m^–2 (n=4),1 (25.0) No. of patients (%)
same,Nausea (any AE),99 mg m^–2 (n=4),1 (25.0) No. of patients (%)
same,Oral herpes (any AE),99 mg m^–2 (n=4),1 (25.0) No. of patients (%)
same,Rhinitis (any AE),99 mg m^–2 (n=4),0 No. of patients (%)
same,Serious AE,99 mg m^–2 (n=4),2 (50) No. of patients (%)
same,Treatment-related AE,99 mg m^–2 (n=4),3 (75.0) No. of patients (%)
same,Vomiting (any AE),99 mg m^–2 (n=4),1 (25.0) No. of patients (%)
same,AE (treatment-emergent),132 mg m^–2 (n=6),6 (100.0) No. of patients (%)
same,Abdominal pain (any AE),132 mg m^–2 (n=6),2 (33.3) No. of patients (%)
same,Acne (any AE),132 mg m^–2 (n=6),0 No. of patients (%)
same,Anaemia (any AE),132 mg m^–2 (n=6),0 No. of patients (%)
same,Anorexia (any AE),132 mg m^–2 (n=6),1 (16.7) No. of patients (%)
same,Back pain (any AE),132 mg m^–2 (n=6),1 (16.7) No. of patients (%)
same,Diarrhoea (any AE),132 mg m^–2 (n=6),3 (50.0) No. of patients (%)
same,Dizziness (any AE),132 mg m^–2 (n=6),1 (16.7) No. of patients (%)
same,Fatigue (any AE),132 mg m^–2 (n=6),1 (16.7) No. of patients (%)
same,Haemoglobin decreased (any AE),132 mg m^–2 (n=6),2 (33.3) No. of patients (%)
same,Hair disorder (any AE),132 mg m^–2 (n=6),0 No. of patients (%)
same,Headache (any AE),132 mg m^–2 (n=6),4 (66.7) No. of patients (%)
same,Herpes simplex infection (any AE),132 mg m^–2 (n=6),0 No. of patients (%)
same,Hypertension (any AE),132 mg m^–2 (n=6),2 (33.3) No. of patients (%)
same,LRTI (any AE),132 mg m^–2 (n=6),1 (16.7) No. of patients (%)
same,Musculoskeletal chest pain (any AE),132 mg m^–2 (n=6),2 (33.3) No. of patients (%)
same,Nausea (any AE),132 mg m^–2 (n=6),2 (33.3) No. of patients (%)
same,Oral herpes (any AE),132 mg m^–2 (n=6),0 No. of patients (%)
same,Rhinitis (any AE),132 mg m^–2 (n=6),4 (66.7) No. of patients (%)
same,Serious AE,132 mg m^–2 (n=6),3 (50.0) No. of patients (%)
same,Treatment-related AE,132 mg m^–2 (n=6),5 (83.3) No. of patients (%)
same,Vomiting (any AE),132 mg m^–2 (n=6),3 (50.0) No. of patients (%)
same,Number of treatment-related AEs per patient (average),176 mg m^–2,9.2
same,AE (treatment-emergent),176 mg m^–2 (n=7),7 (100.0) No. of patients (%)
same,Abdominal pain (any AE),176 mg m^–2 (n=7),0 No. of patients (%)
same,Acne (any AE),176 mg m^–2 (n=7),0 No. of patients (%)
same,Anaemia (any AE),176 mg m^–2 (n=7),3 (42.9) No. of patients (%)
same,Anorexia (any AE),176 mg m^–2 (n=7),2 (28.6) No. of patients (%)
same,Back pain (any AE),176 mg m^–2 (n=7),0 No. of patients (%)
same,Diarrhoea (any AE),176 mg m^–2 (n=7),4 (57.1) No. of patients (%)
same,Dizziness (any AE),176 mg m^–2 (n=7),0 No. of patients (%)
same,Fatigue (any AE),176 mg m^–2 (n=7),4 (57.1) No. of patients (%)
same,Haemoglobin decreased (any AE),176 mg m^–2 (n=7),0 No. of patients (%)
same,Hair disorder (any AE),176 mg m^–2 (n=7),0 No. of patients (%)
same,Headache (any AE),176 mg m^–2 (n=7),2 (28.6) No. of patients (%)
same,Herpes simplex infection (any AE),176 mg m^–2 (n=7),1 (14.3) No. of patients (%)
same,Hypertension (any AE),176 mg m^–2 (n=7),0 No. of patients (%)
same,LRTI (any AE),176 mg m^–2 (n=7),2 (28.6) No. of patients (%)
same,Musculoskeletal chest pain (any AE),176 mg m^–2 (n=7),1 (14.3) No. of patients (%)
same,Nausea (any AE),176 mg m^–2 (n=7),0 No. of patients (%)
same,Oral herpes (any AE),176 mg m^–2 (n=7),1 (14.3) No. of patients (%)
same,Rhinitis (any AE),176 mg m^–2 (n=7),3 (42.9) No. of patients (%)
same,Serious AE,176 mg m^–2 (n=7),1 (14.3) No. of patients (%)
same,Treatment-related AE,176 mg m^–2 (n=7),5 (71.4) No. of patients (%)
same,Vomiting (any AE),176 mg m^–2 (n=7),1 (14.3) No. of patients (%)
same,Dose-limiting toxicities (DLTs),"14–176 mg m^–2 iv once daily days 1–5 of 14-day cycle, first cycle",no dose-limiting toxicities; also recorded: no DLTs
same,"Changes in haematological or biochemistry values, vital signs, body weight, ECG results",all doses,no clinically meaningful changes
same,Neurotoxicity and thrombocytopenia,all doses,no apparent neurotoxicity nor significant thrombocytopenia
same,Tolerability,all doses,safe and well tolerated
same,Treatment-related AEs ⩾grade 3,all doses,rare
same,Total number of treatment-related AEs reported,"all doses, all cycles",127
same,Total number of AEs reported,"all doses, all cycles, 27 patients",282
same,AE: diarrhoea,"all doses, all cycles, N=27",48.1%
same,AE: fatigue,"all doses, all cycles, N=27",33.3%
same,AE: headache,"all doses, all cycles, N=27",40.7%
same,AE: rhinitis,"all doses, all cycles, N=27",40.7%
same,Patients reporting AEs,"all doses, all cycles, N=27",100%
same,Patients reporting treatment-related AEs,"all doses, all cycles, N=27",77.8%
same,Mean blood pressure,all patients during the study,no apparent dose-related increase
same,Maximum-tolerated dose (MTD),doses up to 176 mg m^–2,not reached
same,Grade 3/4 AEs considered possibly treatment-related,"lethargy (two episodes) and syncope, QT prolongation, neutrophil decrease",five events in three patients
same,Recommended phase II dose (RP2D),"once daily on days 1–5 every 2 weeks, highest dose tested",176 mg m^–2
same,Treatment-related AE: diarrhoea,"per patient, all doses, N=27",33.3%
same,Treatment-related AE: dizziness,"per patient, all doses, N=27",7.4%
same,Treatment-related AE: fatigue,"per patient, all doses, N=27",29.6%
same,Treatment-related AE: headache,"per patient, all doses, N=27",25.9%
same,Treatment-related AE: nausea,"per patient, all doses, N=27",14.8%
same,Treatment-related AE: vomiting,"per patient, all doses, N=27",7.4%
same,"Deaths during the study, relation to study medication","two patients, bronchopneumonia and lower respiratory tract infection",unrelated to study medication
